# Test results as given in patent publication US20200368247A1, “CENICRIVIROC FOR THE TREATMENT OF FIBROSIS” (Tobira Therapeutics, Inc., priority 2014, published 2020).
# Assay: Study 202 fasting metabolic laboratory parameters
# Format: in vivo, human
# Excerpt: All abnormalities in total cholesterol, LDL cholesterol, triglycerides, or glucose were Grade 1 or Grade 2.
# Mean baseline values and changes from baseline in HbA1c, HOMA-IR, fasting LDL, fasting HDL, fasting total cholesterol, fasting total cholesterol/HDL ratio, and fasting triglycerides are shown in Table 36.
# [1] = All CVC (N = 115), EFV (N = 28), through Week 48
# [2] = CVC 100 mg (N = 58), through Week 48
# [3] = CVC 200 mg (N = 57), through Week 48
smiles,measurement,setting,value
"CCCCOCCOc1ccc(-c2ccc3c(c2)/C=C(/C(=O)Nc2ccc([S@@+]([O-])Cc4cncn4CCC)cc2)CCCN3CC(C)C)cc1 [CVC, (S)-8-[4-(2-Butoxyethoxy)phenyl]-1-isobutyl-N-(4-{[(1-propyl-1H-imidazol-5-yl)methyl]sulfinyl}phenyl)-1,2,3,4-tetrahydro-1-benzazocine-5-carboxamide]","Fasting total cholesterol abnormality, any grade",[1],8 (7%) n (%)
same,"Fasting triglycerides abnormality, Grade 1",[1],0 n (%)
same,"Fasting triglycerides abnormality, Grade 2",[1],1 (<1%) n (%)
same,"Fasting triglycerides abnormality, Grade 3",[1],0 n (%)
same,"Fasting triglycerides abnormality, Grade 4",[1],0 n (%)
same,"Fasting triglycerides abnormality, any grade",[1],1 (<1%) n (%)
same,"Fasting triglycerides, mean change from baseline","All CVC, EFV, Week 4",-5 mg/dL
same,"HOMA-IR, mean change from baseline","All CVC, EFV, Week 4",−0.30
same,"HbA1c, mean change from baseline","All CVC, EFV, Week 4",−0.03 % Hb
same,"HbA1c, mean change from baseline","All CVC, EFV, Week 12",−0.06 % Hb
same,"HbA1c, mean change from baseline","All CVC, EFV, Week 24",0.06 % Hb
same,"HbA1c, mean change from baseline","All CVC, EFV, Week 48",0.10 % Hb
same,"Any fasting laboratory abnormality, worst Grade 1",[2],3 (5%) n (%)
same,"Any fasting laboratory abnormality, worst Grade 2",[2],1 (2%) n (%)
same,"Any fasting laboratory abnormality, worst Grade 3",[2],0 n (%)
same,"Any fasting laboratory abnormality, worst Grade 4",[2],0 n (%)
same,Any graded (Grade 1-4) fasting laboratory abnormality,[2],4 (7%) n (%)
same,"Fasting LDL cholesterol abnormality, Grade 1",[2],1 (2%) n (%)
same,"Fasting LDL cholesterol abnormality, Grade 2",[2],1 (2%) n (%)
same,"Fasting LDL cholesterol abnormality, Grade 3",[2],0 n (%)
same,"Fasting LDL cholesterol abnormality, Grade 4",[2],0 n (%)
same,"Fasting LDL cholesterol abnormality, any grade",[2],2 (3%) n (%)
same,"Fasting glucose (serum, high) abnormality, Grade 1",[2],0 n (%)
same,"Fasting glucose (serum, high) abnormality, Grade 2",[2],0 n (%)
same,"Fasting glucose (serum, high) abnormality, Grade 3",[2],0 n (%)
same,"Fasting glucose (serum, high) abnormality, Grade 4",[2],0 n (%)
same,"Fasting glucose (serum, high) abnormality, any grade",[2],0 n (%)
same,"Fasting total cholesterol abnormality, Grade 1",[2],3 (5%) n (%)
same,"Fasting total cholesterol abnormality, Grade 2",[2],0 n (%)
same,"Fasting total cholesterol abnormality, Grade 3",[2],0 n (%)
same,"Fasting total cholesterol abnormality, Grade 4",[2],0 n (%)
same,"Fasting total cholesterol abnormality, any grade",[2],3 (5%) n (%)
same,"Fasting triglycerides abnormality, Grade 1",[2],0 n (%)
same,"Fasting triglycerides abnormality, Grade 2",[2],0 n (%)
same,"Fasting triglycerides abnormality, Grade 3",[2],0 n (%)
same,"Fasting triglycerides abnormality, Grade 4",[2],0 n (%)
same,"Fasting triglycerides abnormality, any grade",[2],0 n (%)
same,change in fasting total cholesterol (mainly LDL cholesterol),"CVC 100 mg and 200 mg, through Week 48",decrease
same,"Fasting triglycerides, mean change from baseline","CVC 100 mg, Week 4",-8 mg/dL
same,"HbA1c, mean change from baseline","CVC 100 mg, Week 4",0.01 % Hb
same,"HbA1c, mean change from baseline","CVC 100 mg, Week 12",−0.04 % Hb
same,"Fasting triglycerides, mean change from baseline","CVC 100 mg, Week 24",-8 mg/dL
same,"HbA1c, mean change from baseline","CVC 100 mg, Week 24",0.06 % Hb
same,"HbA1c, mean change from baseline","CVC 100 mg, Week 48",0.09 % Hb
same,"Any fasting laboratory abnormality, worst Grade 1",[3],6 (11%) n (%)
same,"Any fasting laboratory abnormality, worst Grade 2",[3],6 (11%) n (%)
same,"Any fasting laboratory abnormality, worst Grade 3",[3],0 n (%)
same,"Any fasting laboratory abnormality, worst Grade 4",[3],0 n (%)
same,Any graded (Grade 1-4) fasting laboratory abnormality,[3],12 (21%) n (%)
same,"Fasting LDL cholesterol abnormality, Grade 1",[3],2 (4%) n (%)
same,"Fasting LDL cholesterol abnormality, Grade 2",[3],2 (4%) n (%)
same,"Fasting LDL cholesterol abnormality, Grade 3",[3],0 n (%)
same,"Fasting LDL cholesterol abnormality, Grade 4",[3],0 n (%)
same,"Fasting LDL cholesterol abnormality, any grade",[3],4 (7%) n (%)
same,"Fasting glucose (serum, high) abnormality, Grade 1",[3],3 (5%) n (%)
same,"Fasting glucose (serum, high) abnormality, Grade 2",[3],2 (4%) n (%)
same,"Fasting glucose (serum, high) abnormality, Grade 3",[3],0 n (%)
same,"Fasting glucose (serum, high) abnormality, Grade 4",[3],0 n (%)
same,"Fasting glucose (serum, high) abnormality, any grade",[3],5 (9%) n (%)
same,"Fasting total cholesterol abnormality, Grade 1",[3],2 (4%) n (%)
same,"Fasting total cholesterol abnormality, Grade 2",[3],3 (5%) n (%)
same,"Fasting total cholesterol abnormality, Grade 3",[3],0 n (%)
same,"Fasting total cholesterol abnormality, Grade 4",[3],0 n (%)
same,"Fasting total cholesterol abnormality, any grade",[3],5 (9%) n (%)
same,"Fasting triglycerides abnormality, Grade 1",[3],0 n (%)
same,"Fasting triglycerides abnormality, Grade 2",[3],1 (2%) n (%)
same,"Fasting triglycerides abnormality, Grade 3",[3],0 n (%)
same,"Fasting triglycerides abnormality, Grade 4",[3],0 n (%)
same,"Fasting triglycerides abnormality, any grade",[3],1 (2%) n (%)
same,"Fasting triglycerides, mean change from baseline","CVC 200 mg, Week 4",-2 mg/dL
same,"HbA1c, mean change from baseline","CVC 200 mg, Week 4",−0.08 % Hb
same,"HbA1c, mean change from baseline","CVC 200 mg, Week 12",−0.08 % Hb
same,"HbA1c, mean change from baseline","CVC 200 mg, Week 24",0.06 % Hb
same,"Fasting total cholesterol, mean change from baseline","CVC 200 mg, Week 48",-9 mg/dL
same,"HbA1c, mean change from baseline","CVC 200 mg, Week 48",0.10 % Hb
